# Laboratory results from US20220009920A1 (GB005, Inc., priority 2020, published 2022).
# Columns and labels:
# Assay in all cases: Large panel kinase profiling
# Assay type in all cases: biochemical
# Settings in all cases: 1 μM test article, 1 mM ATP
# [1] = biological target: T1, MAPK15/ERK7 (Homo sapiens, UniProt Q8TD08)
# T1 construct: AssayQuant Technologies, Inc. (service provider)
# T1 sequence (Q8TD08 1-544): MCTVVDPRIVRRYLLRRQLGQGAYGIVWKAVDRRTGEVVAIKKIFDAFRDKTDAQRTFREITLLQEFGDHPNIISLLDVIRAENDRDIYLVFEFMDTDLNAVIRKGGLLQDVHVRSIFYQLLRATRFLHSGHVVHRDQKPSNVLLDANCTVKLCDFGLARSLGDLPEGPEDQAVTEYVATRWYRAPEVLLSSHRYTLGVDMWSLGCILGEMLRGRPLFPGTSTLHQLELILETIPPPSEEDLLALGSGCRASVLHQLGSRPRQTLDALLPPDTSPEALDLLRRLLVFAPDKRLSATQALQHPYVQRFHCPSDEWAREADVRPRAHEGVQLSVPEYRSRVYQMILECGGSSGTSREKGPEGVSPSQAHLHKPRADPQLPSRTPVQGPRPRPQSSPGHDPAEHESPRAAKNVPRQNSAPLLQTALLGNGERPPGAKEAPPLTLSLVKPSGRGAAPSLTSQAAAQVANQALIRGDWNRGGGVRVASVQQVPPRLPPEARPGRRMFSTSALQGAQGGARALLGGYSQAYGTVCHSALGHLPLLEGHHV
# How it was run: (§1)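 With ATP fixed at 1 mM, each kinase was exposed to 1 μM compound in a PhosphoSens CSox-Sensor reaction. Sealed plates were incubated at 30° C. and read in kinetic mode.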
# [2] = biological target: T2, MAP3K5 (Homo sapiens, UniProt Q99683)
# T2 construct: AssayQuant Technologies, Inc. (service provider)
# T2 sequence (Q99683 1-1374): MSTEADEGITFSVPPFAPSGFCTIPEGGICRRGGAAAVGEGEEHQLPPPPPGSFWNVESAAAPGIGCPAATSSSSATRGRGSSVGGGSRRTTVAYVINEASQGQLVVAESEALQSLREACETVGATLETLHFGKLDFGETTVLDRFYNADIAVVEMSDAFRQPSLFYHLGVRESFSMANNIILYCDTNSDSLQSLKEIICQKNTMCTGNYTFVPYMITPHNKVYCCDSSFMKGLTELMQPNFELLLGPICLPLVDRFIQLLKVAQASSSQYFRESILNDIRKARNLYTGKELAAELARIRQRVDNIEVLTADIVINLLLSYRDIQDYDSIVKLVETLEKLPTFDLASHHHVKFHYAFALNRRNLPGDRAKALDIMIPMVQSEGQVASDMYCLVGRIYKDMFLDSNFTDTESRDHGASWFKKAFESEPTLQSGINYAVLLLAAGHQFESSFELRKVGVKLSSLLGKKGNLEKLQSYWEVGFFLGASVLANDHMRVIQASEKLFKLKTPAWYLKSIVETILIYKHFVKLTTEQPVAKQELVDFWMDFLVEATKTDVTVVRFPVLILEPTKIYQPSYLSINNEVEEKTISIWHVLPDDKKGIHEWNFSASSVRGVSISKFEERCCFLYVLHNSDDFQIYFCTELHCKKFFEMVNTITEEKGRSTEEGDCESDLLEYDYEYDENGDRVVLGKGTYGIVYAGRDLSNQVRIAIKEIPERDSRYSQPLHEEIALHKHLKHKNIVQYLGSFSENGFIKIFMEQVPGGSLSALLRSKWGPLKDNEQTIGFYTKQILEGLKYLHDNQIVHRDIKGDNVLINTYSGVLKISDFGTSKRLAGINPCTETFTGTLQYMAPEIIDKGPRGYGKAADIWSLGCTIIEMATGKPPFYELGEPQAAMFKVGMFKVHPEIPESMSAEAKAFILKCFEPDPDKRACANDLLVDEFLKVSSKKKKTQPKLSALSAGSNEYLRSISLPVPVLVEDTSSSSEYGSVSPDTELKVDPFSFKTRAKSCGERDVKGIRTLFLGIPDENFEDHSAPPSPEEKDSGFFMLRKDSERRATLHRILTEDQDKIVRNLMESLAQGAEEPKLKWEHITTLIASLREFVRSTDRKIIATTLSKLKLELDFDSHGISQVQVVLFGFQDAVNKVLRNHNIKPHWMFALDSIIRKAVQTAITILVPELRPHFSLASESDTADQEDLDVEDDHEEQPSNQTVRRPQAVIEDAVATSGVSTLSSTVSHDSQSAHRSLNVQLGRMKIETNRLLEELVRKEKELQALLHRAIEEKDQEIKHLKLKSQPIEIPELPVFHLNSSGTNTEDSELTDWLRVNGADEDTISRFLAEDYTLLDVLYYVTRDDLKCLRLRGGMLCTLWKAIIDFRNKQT
# How it was run: as §1
# [3] = biological target: PIM2 (Homo sapiens, UniProt Q9P1W9)
# How it was run: as §1
# [4] = biological target: PRKACB (Homo sapiens, UniProt P22694)
# How it was run: as §1
# [5] = biological target: T3, YES (Homo sapiens, UniProt P07947)
# T3 construct: AssayQuant Technologies, Inc. (contract laboratory that ran the panel)
# How it was run: as §1
# [6] = biological target: T4, RPS6KA4/MSK2 (Homo sapiens, UniProt O75676)
# T4 construct: AssayQuant Technologies, Inc. (contract assay)
# How it was run: as §1
# T3 sequence (P07947 whole entry, species assumed): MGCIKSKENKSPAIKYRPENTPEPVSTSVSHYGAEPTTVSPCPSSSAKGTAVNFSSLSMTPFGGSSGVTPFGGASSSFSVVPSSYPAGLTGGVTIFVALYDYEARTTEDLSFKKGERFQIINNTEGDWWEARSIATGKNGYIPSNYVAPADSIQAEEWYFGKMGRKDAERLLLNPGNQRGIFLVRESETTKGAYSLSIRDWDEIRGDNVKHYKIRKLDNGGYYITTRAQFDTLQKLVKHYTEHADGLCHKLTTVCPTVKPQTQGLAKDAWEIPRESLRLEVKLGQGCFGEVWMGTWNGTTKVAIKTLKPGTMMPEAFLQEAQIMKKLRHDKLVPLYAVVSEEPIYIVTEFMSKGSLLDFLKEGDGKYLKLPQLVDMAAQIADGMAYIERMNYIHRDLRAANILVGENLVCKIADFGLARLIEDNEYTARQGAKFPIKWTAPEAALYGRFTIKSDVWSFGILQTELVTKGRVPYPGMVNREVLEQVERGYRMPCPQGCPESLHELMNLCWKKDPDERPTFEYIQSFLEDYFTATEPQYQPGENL
# T4 sequence (O75676 whole entry): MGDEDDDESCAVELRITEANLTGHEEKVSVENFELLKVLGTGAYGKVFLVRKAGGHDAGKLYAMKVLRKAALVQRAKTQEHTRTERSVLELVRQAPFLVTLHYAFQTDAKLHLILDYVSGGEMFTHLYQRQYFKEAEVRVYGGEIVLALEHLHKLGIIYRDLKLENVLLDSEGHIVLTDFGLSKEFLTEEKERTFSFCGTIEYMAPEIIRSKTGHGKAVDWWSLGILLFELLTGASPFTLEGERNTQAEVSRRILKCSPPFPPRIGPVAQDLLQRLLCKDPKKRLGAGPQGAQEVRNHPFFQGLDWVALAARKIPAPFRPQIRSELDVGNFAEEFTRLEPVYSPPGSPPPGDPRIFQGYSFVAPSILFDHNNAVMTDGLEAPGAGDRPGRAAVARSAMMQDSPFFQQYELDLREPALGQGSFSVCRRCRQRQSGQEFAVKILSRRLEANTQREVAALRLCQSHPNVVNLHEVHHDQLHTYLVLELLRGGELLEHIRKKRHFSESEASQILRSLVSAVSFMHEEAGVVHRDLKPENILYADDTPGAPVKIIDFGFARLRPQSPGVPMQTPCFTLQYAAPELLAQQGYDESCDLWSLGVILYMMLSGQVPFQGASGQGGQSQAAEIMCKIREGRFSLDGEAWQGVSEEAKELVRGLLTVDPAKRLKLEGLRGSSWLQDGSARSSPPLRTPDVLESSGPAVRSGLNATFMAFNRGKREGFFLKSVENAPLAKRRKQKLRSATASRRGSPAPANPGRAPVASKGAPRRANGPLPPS
# Sequence of PIM2 (Q9P1W9 whole entry, species assumed): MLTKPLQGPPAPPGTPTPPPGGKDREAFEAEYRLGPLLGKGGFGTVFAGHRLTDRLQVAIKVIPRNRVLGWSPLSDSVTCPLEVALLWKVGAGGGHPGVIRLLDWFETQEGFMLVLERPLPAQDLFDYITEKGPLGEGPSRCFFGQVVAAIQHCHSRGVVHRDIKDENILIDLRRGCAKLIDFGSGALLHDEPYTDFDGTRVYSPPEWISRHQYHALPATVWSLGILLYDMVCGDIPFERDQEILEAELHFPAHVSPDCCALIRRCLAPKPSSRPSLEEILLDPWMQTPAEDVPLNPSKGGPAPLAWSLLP
Compound,inhibition at 1 µM [1] [%],inhibition at 1 µM [2] [%],inhibition at 1 µM [3] [%],inhibition at 1 µM [4] [%],inhibition at 1 µM [5] [%],inhibition at 1 µM [6] [%]
"C=CC(=O)N1CCCC(c2c(F)cc(C(N)=O)c3[nH]c4c(c23)CCCCC4)C1 (single isomer, unassigned) [Compound 5-6]",-3.4,-10.4,2.5,10.6,8.8,-6.1
"C=CC(=O)N1CCC[C@@H](c2c(F)cc(C(N)=O)c3[nH]c4c(c23)CCC4)C1 [Compound 10-2, (S)-8-(1-acryloylpiperidin-3-yl)-7-fluoro-1,2,3,4-tetrahydrocyclo-penta[b]indole-5-carboxamide]",-2,16.7,3.3,1.6,23.9,-21.2
"C=CC(=O)N1CCC[C@@H](c2c(F)cc(C(N)=O)c3[nH]c4c(c23)CC2(CC4)CC2)C1 [Compound 6-2, (S)-5-(1-acryloylpiperidin-3-yl)-6-fluoro-1,2,4,9-tetrahydrospiro[carbazole-3,1′-cyclopropane]-8-carboxamide]",15.3,20,10.9,13.2,27,-23.2
